According to patent publication US20080118529A1 (priority 2005, published 2008):

Columns and labels:
[1] = tested on: tPA; type: biochemical, human
[2] = target: T1, factor XII (Homo sapiens, UniProt P00748); type: biochemical
[3] = target: T1, factor XII; type: biochemical; remark: listed apart in the source
[4] = tested on: OVA; parameters: species or system chicken; settings: in vivo
[5] = tested on: nOVA; parameters: species or system Balb/c mice; settings: mouse, in vivo
[6] = tested on: DOVA; parameters: species or system chicken; settings: in vivo
[7] = tested on: U937 monocytes; type: cell-based, human; settings: 1 h

T1 sequence (P00748 20-615): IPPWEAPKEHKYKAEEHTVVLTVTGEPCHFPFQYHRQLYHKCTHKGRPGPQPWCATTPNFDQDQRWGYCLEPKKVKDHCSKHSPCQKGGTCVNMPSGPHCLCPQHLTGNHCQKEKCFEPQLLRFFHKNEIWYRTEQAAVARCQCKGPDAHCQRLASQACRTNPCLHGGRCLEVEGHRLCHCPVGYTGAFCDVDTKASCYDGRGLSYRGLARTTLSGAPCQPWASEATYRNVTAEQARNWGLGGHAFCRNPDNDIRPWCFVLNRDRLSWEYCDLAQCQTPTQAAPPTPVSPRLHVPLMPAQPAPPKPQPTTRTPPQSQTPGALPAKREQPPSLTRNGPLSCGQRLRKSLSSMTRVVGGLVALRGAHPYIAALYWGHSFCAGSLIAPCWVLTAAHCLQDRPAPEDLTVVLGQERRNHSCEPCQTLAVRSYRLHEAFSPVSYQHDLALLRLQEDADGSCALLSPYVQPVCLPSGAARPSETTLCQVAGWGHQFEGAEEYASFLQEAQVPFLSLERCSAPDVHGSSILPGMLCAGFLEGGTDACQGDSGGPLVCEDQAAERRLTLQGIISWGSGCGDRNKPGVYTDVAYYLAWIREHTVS
Chain of nOVA (P01012 whole entry): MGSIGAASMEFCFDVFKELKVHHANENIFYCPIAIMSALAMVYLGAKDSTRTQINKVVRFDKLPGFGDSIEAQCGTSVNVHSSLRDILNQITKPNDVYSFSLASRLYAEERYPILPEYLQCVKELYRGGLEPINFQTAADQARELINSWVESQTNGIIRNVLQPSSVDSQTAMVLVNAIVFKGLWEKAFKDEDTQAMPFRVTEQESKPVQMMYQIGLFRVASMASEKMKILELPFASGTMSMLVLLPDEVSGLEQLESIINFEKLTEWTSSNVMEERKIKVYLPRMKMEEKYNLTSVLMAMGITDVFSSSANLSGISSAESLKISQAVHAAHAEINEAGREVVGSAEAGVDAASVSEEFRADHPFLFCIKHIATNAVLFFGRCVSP

Question: Which “activation of tPA by adjuvants” value [1] does the source give for `CCCCCCCCCCCCCCCCCC[N+](C)(C)CCCCCCCCCCCCCCCCCC.[Br-]` [DDA, dimethyl dioctadecyl ammonium bromide] here?
Answer: activators of tPA

Question: What does the source list for `Cc1ccc2c(c1)sc(-c1ccc(N(C)C)cc1)[n+]2C.[Cl-]` [ThT, Thioflavin T]?
Answer: inhibition of factor XII activation by DXS500k and 80× diluted plasma [2]: fully inhibited; inhibition of the stimulatory activity of FP13 K157G on factor XII autoactivation [2]: effectively inhibits

Question: dextran-sulphate [DXS500k] was tested. Which “activation of factor XII in the presence of prekallikrein and high molecular weight kininogen” value [3] did it give?
Answer: only then effectively activated

Question: What about the “factor XII activation by DXS500k” value [2] of the same compound?
Answer: only a stimulatory factor for factor XII activation when 80× diluted plasma is present

Question: What about the “activation of tPA by adjuvants” value [1] of the same compound?
Answer: activators of tPA

Question: Which results are given for ovalbumin [nOVA]?
Answer: anti-OVA titer [4]: can not elicit; anti-nOVA titer after one week [5]: no titer was detected; titer of anti-nOVA antibodies [5]: 610; anti-DOVA titer [6]: can not elicit

Question: For glucagon [native glucagon], which “tPA/plasminogen activating potential of protein/antigen preparation” value [1] is on record?
Answer: some tPA activating potential

Question: Which “TNFα RNA expression compared to LPS” value ([7]; 100 μg/ml amyloid endostatin, 260 μg/ml Hb-AGE, 1 μg/ml LPS, normalized to 18S) does the source give for Endostatin here?
Answer: approximately 30%

Question: Which results are given for “control Hb: control haemoglobin, not glycated”?
Answer: TNFα RNA expression relative to endostatin and Hb-AGE ([7]; 260 μg/ml): approximately threefold lower; TNFα RNA upregulation relative to values after amyloid endostatin or glycated Hb stimulation ([7]; 260 μg/ml): ≤ 30%

Question: Which “tPA/plasminogen activating potential of protein/antigen preparation” value [1] does the source give for Etanercept [Native Etanercept] here?
Answer: some tPA activation
